Assay results: patent publication US5283236A, “Systemic delivery of polypeptides through the eye” (Orbon Corporation, priority 1992, dated 1994)

Columns and labels:
normal rabbits [1] = test: Blood glucose after insulin eye drops with absorption enhancers; assay type: in vivo, New Zealand white female rabbits; settings: eye drops: 1% insulin plus 1% absorption enhancer (Control: no enhancer)
[2] = Insulin absorption from eye drops with absorption enhancers (blood insulin); assay type: in vivo, New Zealand white female rabbits; settings: eye drops: 1% insulin plus 1% absorption enhancer (Control: no enhancer)
[3] = Enkephalin-equivalent remaining in eye tissues at the end of 12 hr experiment; assay type: in vivo, New Zealand white female rabbits
[4] = Blood enkephalin-equivalent concentration after ocular or i.v. enkephalin; assay type: in vivo, New Zealand white female rabbits; settings: enkephalin 50 ug i.v.
normal rabbits [5] = test: Blood glucose after ocular or i.v. glucagon in normal rabbits; assay type: in vivo, New Zealand white female rabbits; settings: for blood glucose raised to: in 30 min
[6] = rabbit, in vivo
Text: The concentrations of peptides in the blood were expressed in ng/ml.

[7] = Penetration of insulin into eyeballs with absorption enhancers; assay type: in vivo, rabbits; settings: 1% insulin plus 1% enhancer (Control: 1% insulin only)

## C[N+](C)(C)CCCCCCCCCC[N+](C)(C)C [Decamethonium, decamethonium bromide]
Normal rabbits [1]
  % Change in Blood Glucose Concentration: 8%
  Blood Glucose Concentration Before: 90 ± 3 mg %
[2]
  Insulin peak Concentration: 10.8 ± 1.8 ng/mL

## CC(C)C[C@H](NC(=O)[C@H](Cc1ccccc1)NC(=O)CNC(=O)CNC(=O)[C@@H](N)Cc1ccc(O)cc1)C(=O)O [enkephalin, Leucine-enkephalin (5-L-leucine)]
[3]; 1% enkephalin
  Residual amount of enkephalin remaining in tissues, % of instilled, Total: 0.1713%
  Residual amount of enkephalin remaining in tissues, Amount, Total: 428.28 ng
[3]; 5% enkephalin
  Residual amount of enkephalin remaining in tissues, % of instilled, Total: 0.1136%
[3]; […] enkephalin
  Residual amount of enkephalin remaining in tissues, % of instilled, Total: 0.3019%
[4]
  Tx of decline of blood concentration: less than 30 min
[4]; in 5 hrs
  lowest blood concentration: 22 ng/mL

## polyoxyethylene-9-lauryl ether [BL-9]
Normal rabbits [1]
  % Change in Blood Glucose Concentration: 42%
  Blood Glucose Concentration After: 56 mg %
  Blood Glucose Concentration Before: 97 mg %

## Glucagon
Normal rabbits [5]; 50 ug glucagon i.v., peaked at 30 min
  blood glucose peak: 235 mg %
Normal rabbits [5]; 25 ul of 0.2% glucagon instilled
  blood glucose raised to: 204 mg %
Normal rabbits [5]; 25 ul of 0.2% glucagon instilled, in 2 hrs
  blood glucose came down to: 116 mg %
Normal rabbits [5]; 25 ul of 1% glucagon instilled
  blood glucose raised to: 248 mg %
Normal rabbits [5]; 25 ul of 5% glucagon instilled, end of 6 hr
  blood glucose declined to: 160 mg %

## CC(C)C[C@H](NC(=O)CNC(=O)[C@H](Cc1ccc(O)cc1)NC(=O)[C@H](CO)NC(=O)[C@H](Cc1c[nH]c2ccccc12)NC(=O)[C@H](Cc1cnc[nH]1)NC(=O)[C@@H]1CCC(=O)N1)C(=O)N[C@@H](CCCNC(=N)N)C(=O)N1CCC[C@H]1C(=O)NCC(N)=O [LHRH, luteinizing hormone-releasing hormone]
[6]
  LHRH eye drop concentration sufficient to reach therapeutic effective blood concentration: ≥ 0.005%
[6]; iv
  Tx of blood LHRH: approximately 15 min

## C[C@H](CCC(=O)NCC(=O)O)[C@H]1CC[C@H]2[C@@H]3[C@H](O)C[C@@H]4C[C@H](O)CC[C@]4(C)[C@H]3C[C@H](O)[C@]12C [Glycocholate, sodium glycocholate]
[7]
  Absolute amount of insulin in the eyeball: 200 ng

## NC(=O)[C@@H]1CCCN1C(=O)[C@H](Cc1cnc[nH]1)NC(=O)[C@@H]1CCC(=O)N1 [TRH, Thyrotrophin-releasing hormone]
[6]
  TRH eye drop concentration giving a therapeutic blood concentration: ≥ 0.0025%
[6]; iv
  Tx of blood TRH: approximately 10 min
